From US20250100977A1, “MERCAPTOPYRIMIDINE COMPOUNDS THAT INHIBIT NONHOMOLOGOUS END JOINING AND METHODS THEREOF” (INDIAN INSTITUTE OF SCIENCE, priority 2021, published 2025)
Read-outs that look alike come from different tables or passages of the source.

Tests used:
Molt4 = test: Cytotoxicity in Molt4; assay type: cell-based, human; conditions: Table 2; read-out: IC50 in cancer cell lines, Molt4
Description: (§1) Ligase IV specificity of the compounds of the present invention inside the cells were also determined using Ligase IV knock out (KO) cell line N114 compared to the wild type Nalm6 (Table 2, FIGS. 5C, D, E and F). […] Table 1 showing IC50 of SCR7 derivatives in cancer cell lines Nalm6 and HeLa. IC50 was calculated using GraphPad Prism software from the percentage of viable cells following treatment with the compounds at 48 h. Table 2 showing IC50 of SCR116 and SCR132 in a panel of 16 cancer cell lines.

Supt1 = test: Cytotoxicity in Supt1; assay type: cell-based; conditions: Table 2; read-out: IC50 in cancer cell lines, Supt1
Description: as §1

CEM = test: Cytotoxicity in CEM; assay type: cell-based; conditions: Table 2; read-out: IC50 in cancer cell lines, CEM
Description: as §1

Molt3 = test: Cytotoxicity in Molt3; assay type: cell-based; conditions: Table 2; read-out: IC50 in cancer cell lines, Molt3
Description: as §1

[1] = Bioavailability in mice serum by HPLC; conditions: intraperitoneal, 20 mg/kg body weight
Description: The bioavailability of the compounds of the present disclosure were analysed in mice serum at different time points (0.5, 1, 2, 4, 6, 8, 10, 12, 24 and 48 h) by HPLC at 232 nm wavelength (FIGS. 10N-P).

EAC = test: Cytotoxicity in EAC; assay type: cell-based, mice; conditions: Table 2; read-out: IC50 in cancer cell lines, EAC
Description: as §1

HCT116 = test: Cytotoxicity in HCT116; assay type: cell-based; conditions: Table 2; read-out: IC50 in cancer cell lines, HCT116
Description: as §1

[2] = tested on: Ligase IV knock out (KO) cell line N114; test: Cytotoxicity in Ligase IV knock out cell line N114; assay type: cell-based; conditions: Table 2, 48 h, read-out: IC50 in cancer cell lines, N114
Description: as §1

L1210 = test: Cytotoxicity in L1210; assay type: cell-based; conditions: Table 2; read-out: IC50 in cancer cell lines, L1210
Description: as §1

SUDHL8 = test: Cytotoxicity in SUDHL8; assay type: cell-based; conditions: Table 2; read-out: IC50 in cancer cell lines, SUDHL8
Description: as §1

DNA Ligase IV/XRCC4 = biological target: T1, DNA Ligase IV/XRCC4 (Homo sapiens, UniProt P49917); conditions: 200 μM; background statement; cited from earlier work
T1 construct: made in house; host or cells: bacteria

Reh = test: Cytotoxicity in Reh; assay type: cell-based; conditions: Table 2; 48 h; read-out: IC50 in cancer cell lines, Reh
Description: (§2) The compounds of the present invention were screened initially in leukemic and cervical cancer cell lines (Table 1). […] In cervical cancer cell line HeLa, IC50 was 5 and 2 μM, respectively for SCR116 and SCR132 (FIG. 5A-B).
as §1

Raji = test: Cytotoxicity in Raji; assay type: cell-based; conditions: Table 2; read-out: IC50 in cancer cell lines, Raji
Description: as §1

MCF7 = test: Cytotoxicity in MCF7; assay type: cell-based; conditions: Table 2; read-out: IC50 in cancer cell lines, MCF7
Description: as §1

HeLa = test: Cytotoxicity (viable cells) in HeLa; assay type: cell-based; conditions: Table 2; read-out: IC50 in cancer cell lines, HeLa
Description: as §2, §1

LN229 = test: Cytotoxicity in LN229; assay type: cell-based; conditions: Table 2; read-out: IC50 in cancer cell lines, LN229
Description: as §1

[3] = tested on: Ligase IV knock out (KO) cell line N114; conditions: Vartak et al. 2018, cited from earlier work
Nalm6 = test: Cytotoxicity (viable cells) in Nalm6; assay type: cell-based; conditions: Table 2; read-out: IC50 in cancer cell lines, Nalm6
Description: as §2, §1

U118 = test: Cytotoxicity in U118; assay type: cell-based; conditions: Table 2; read-out: IC50 in cancer cell lines, U118
Description: as §1

[4] = tested on: cancer cell lines, particularly leukemia; conditions: background statement; cited from earlier work

T1 sequence (P49917 whole entry): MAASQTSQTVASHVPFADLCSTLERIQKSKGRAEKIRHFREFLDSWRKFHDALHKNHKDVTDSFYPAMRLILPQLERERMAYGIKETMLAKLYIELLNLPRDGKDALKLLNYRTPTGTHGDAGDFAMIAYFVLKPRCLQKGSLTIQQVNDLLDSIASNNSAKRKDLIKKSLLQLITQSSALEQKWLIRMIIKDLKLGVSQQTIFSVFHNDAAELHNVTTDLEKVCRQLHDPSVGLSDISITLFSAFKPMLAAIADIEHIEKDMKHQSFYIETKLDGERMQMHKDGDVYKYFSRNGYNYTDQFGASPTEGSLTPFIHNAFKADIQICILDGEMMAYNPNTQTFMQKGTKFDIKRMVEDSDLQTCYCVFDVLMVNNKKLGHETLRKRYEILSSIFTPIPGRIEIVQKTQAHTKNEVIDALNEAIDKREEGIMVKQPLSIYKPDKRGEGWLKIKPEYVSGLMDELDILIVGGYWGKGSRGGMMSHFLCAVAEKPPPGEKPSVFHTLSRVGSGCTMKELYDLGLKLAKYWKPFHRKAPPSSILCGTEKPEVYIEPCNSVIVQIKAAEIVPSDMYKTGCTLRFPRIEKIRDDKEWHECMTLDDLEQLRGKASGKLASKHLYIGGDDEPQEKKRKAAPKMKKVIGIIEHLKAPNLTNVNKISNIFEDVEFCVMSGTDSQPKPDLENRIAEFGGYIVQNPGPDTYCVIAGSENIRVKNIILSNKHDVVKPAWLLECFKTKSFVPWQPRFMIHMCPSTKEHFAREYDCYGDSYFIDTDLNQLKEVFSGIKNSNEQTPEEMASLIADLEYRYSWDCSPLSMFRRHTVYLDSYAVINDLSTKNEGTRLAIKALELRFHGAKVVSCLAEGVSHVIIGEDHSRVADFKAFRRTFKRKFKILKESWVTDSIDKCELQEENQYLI
T1 sequence (Q13426 whole entry partner): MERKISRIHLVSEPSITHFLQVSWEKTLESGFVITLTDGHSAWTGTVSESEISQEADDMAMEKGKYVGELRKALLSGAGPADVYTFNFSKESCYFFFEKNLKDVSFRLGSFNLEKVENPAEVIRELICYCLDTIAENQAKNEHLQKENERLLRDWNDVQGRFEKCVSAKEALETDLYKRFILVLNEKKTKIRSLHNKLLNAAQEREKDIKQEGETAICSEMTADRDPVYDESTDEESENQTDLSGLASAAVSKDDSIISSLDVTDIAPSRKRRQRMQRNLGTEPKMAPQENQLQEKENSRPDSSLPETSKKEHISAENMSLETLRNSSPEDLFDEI

- t1/2 [1]: 1 h
Structure (SMILES): O=c1[nH]c(=S)[nH]c(N=Cc2ccccc2)c1N=Cc1ccccc1 [SCR7, reference compound]
- IC50 (Molt4): 182 µM
- IC50 (Supt1): 109 µM
- IC50 (CEM): > 200 µM
- IC50 (Molt3): 79.1 µM
- IC50 (EAC): 132 µM
- IC50 (HCT116): 302 µM
- IC50 [2]: > 250 µM
- IC50 (L1210): 370 µM
- IC50 (SUDHL8): 100 µM
- Inhibition of DNA Ligase IV (DNA Ligase IV/XRCC4): 50%
- IC50 (Reh): > 250 µM
- IC50 (Raji): > 250 µM
- IC50 (MCF7): 40 µM
- IC50 (HeLa): 44 µM
- IC50 (LN229): 59.9 µM
- IC50 [3]: > 250 µM
- Fold increased IC50 in N114 ([3]; vs Nalm6): 5 fold
- IC50 (Nalm6): 50 µM
- IC50 (U118): 151 µM
- IC50 [4]: > 250 µM
